Test results published in PubChem BioAssay (NCI).
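Briefly, cells in 96-well plates were exposed to five compound concentrations for 48 h, and endpoints were estimated by linear interpolation. GI50 marks 50% less growth. TGI marks complete inhibition of growth.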

How the values were obtained:
Assay in all cases: DTP human tumour cell line panel, 48 h
RXF 393 renal = tested on: RXF 393 renal
NCI-H460 lung = tested on: NCI-H460 lung
K-562 leukemia = tested on: K-562 leukemia
LOX IMVI melanoma = tested on: LOX IMVI melanoma
MDA-MB-435 = tested on: MDA-MB-435
OVCAR-5 ovarian = tested on: OVCAR-5 ovarian
IGROV1 ovarian = tested on: IGROV1 ovarian
T-47D breast = tested on: T-47D breast
M14 melanoma = tested on: M14 melanoma
MOLT-4 leukemia = tested on: MOLT-4 leukemia
UO-31 renal = tested on: UO-31 renal
MCF7 breast = tested on: MCF7 breast
SF-268 CNS = tested on: SF-268 CNS
MDA-MB-231 breast = tested on: MDA-MB-231 breast
NCI-H23 lung = tested on: NCI-H23 lung
UACC-62 melanoma = tested on: UACC-62 melanoma
HCT-116 colon = tested on: HCT-116 colon
DU-145 prostate = tested on: DU-145 prostate
HL-60(TB) leukemia = tested on: HL-60(TB) leukemia
SF-539 CNS = tested on: SF-539 CNS
SK-OV-3 ovarian = tested on: SK-OV-3 ovarian
OVCAR-4 ovarian = tested on: OVCAR-4 ovarian
OVCAR-8 ovarian = tested on: OVCAR-8 ovarian
SK-MEL-28 melanoma = tested on: SK-MEL-28 melanoma
NCI-H522 lung = tested on: NCI-H522 lung
OVCAR-3 ovarian = tested on: OVCAR-3 ovarian
MALME-3M melanoma = tested on: MALME-3M melanoma
A498 renal = tested on: A498 renal
SN12C renal = tested on: SN12C renal
HCC-2998 colon = tested on: HCC-2998 colon
SNB-75 CNS = tested on: SNB-75 CNS
SF-295 CNS = tested on: SF-295 CNS
NCI-H226 lung = tested on: NCI-H226 lung
U251 CNS = tested on: U251 CNS
SK-MEL-5 melanoma = tested on: SK-MEL-5 melanoma
HCT-15 colon = tested on: HCT-15 colon
SR leukemia = tested on: SR leukemia
SW-620 colon = tested on: SW-620 colon
SNB-19 CNS = tested on: SNB-19 CNS
A549 NSCLC = tested on: A549 NSCLC
KM12 colon = tested on: KM12 colon
TK-10 renal = tested on: TK-10 renal
NCI/ADR-RES ovarian = tested on: NCI/ADR-RES ovarian
HOP-62 NSCLC = tested on: HOP-62 NSCLC
ACHN renal = tested on: ACHN renal
CAKI-1 renal = tested on: CAKI-1 renal
UACC-257 melanoma = tested on: UACC-257 melanoma
HOP-92 NSCLC = tested on: HOP-92 NSCLC
CCRF-CEM leukemia = tested on: CCRF-CEM leukemia
HT29 colon = tested on: HT29 colon
SK-MEL-2 melanoma = tested on: SK-MEL-2 melanoma
COLO 205 colon = tested on: COLO 205 colon
HS 578T breast = tested on: HS 578T breast
PC-3 prostate = tested on: PC-3 prostate
RPMI-8226 leukemia = tested on: RPMI-8226 leukemia
BT-549 breast = tested on: BT-549 breast
786-0 renal = tested on: 786-0 renal

Cn1cc(C2=C(c3cn(C)c4ccccc34)C(=O)NC2=O)c2ccccc21
GI50 (RXF 393 renal): 825 nM
TGI (RXF 393 renal): 14.5 µM
GI50 (NCI-H460 lung): 1120 nM
TGI (NCI-H460 lung): > 25 µM
GI50 (K-562 leukemia): 235 nM
TGI (K-562 leukemia): > 25 µM
GI50 (LOX IMVI melanoma): 1800 nM
TGI (LOX IMVI melanoma): > 25 µM
GI50 (MDA-MB-435): 95 nM
TGI (MDA-MB-435): > 6.61 µM
GI50 (OVCAR-5 ovarian): > 25 µM
TGI (OVCAR-5 ovarian): > 25 µM
GI50 (IGROV1 ovarian): 11.7 µM
TGI (IGROV1 ovarian): > 25 µM
GI50 (T-47D breast): 1800 nM
TGI (T-47D breast): > 25 µM
GI50 (M14 melanoma): 1900 nM
TGI (M14 melanoma): > 25 µM
GI50 (MOLT-4 leukemia): 4.81 µM
TGI (MOLT-4 leukemia): > 25 µM
GI50 (UO-31 renal): 2490 nM
TGI (UO-31 renal): > 25 µM
GI50 (MCF7 breast): 720 nM
TGI (MCF7 breast): > 25 µM
GI50 (SF-268 CNS): 3.1 µM
TGI (SF-268 CNS): > 25 µM
GI50 (MDA-MB-231 breast): > 23.5 µM
TGI (MDA-MB-231 breast): > 25 µM
GI50 (NCI-H23 lung): 2300 nM
TGI (NCI-H23 lung): > 25 µM
GI50 (UACC-62 melanoma): 2240 nM
TGI (UACC-62 melanoma): > 25 µM
GI50 (HCT-116 colon): 1170 nM
TGI (HCT-116 colon): > 25 µM
GI50 (DU-145 prostate): 1660 nM
TGI (DU-145 prostate): > 25 µM
GI50 (HL-60(TB) leukemia): 747 nM
TGI (HL-60(TB) leukemia): 5.1 µM
GI50 (SF-539 CNS): 738 nM
TGI (SF-539 CNS): 5.25 µM
GI50 (SK-OV-3 ovarian): 1510 nM
TGI (SK-OV-3 ovarian): > 25 µM
GI50 (OVCAR-4 ovarian): 5.01 µM
TGI (OVCAR-4 ovarian): > 25 µM
GI50 (OVCAR-8 ovarian): 2960 nM
TGI (OVCAR-8 ovarian): > 25 µM
GI50 (SK-MEL-28 melanoma): 3.71 µM
TGI (SK-MEL-28 melanoma): > 25 µM
GI50 (NCI-H522 lung): 433 nM
TGI (NCI-H522 lung): 2520 nM
GI50 (OVCAR-3 ovarian): 646 nM
TGI (OVCAR-3 ovarian): > 6.67 µM
GI50 (MALME-3M melanoma): 4.42 µM
TGI (MALME-3M melanoma): > 25 µM
GI50 (A498 renal): 457 nM
TGI (A498 renal): > 25 µM
GI50 (SN12C renal): 3.47 µM
TGI (SN12C renal): > 25 µM
GI50 (HCC-2998 colon): > 25 µM
TGI (HCC-2998 colon): > 25 µM
GI50 (SNB-75 CNS): 306 nM
TGI (SNB-75 CNS): 1640 nM
GI50 (SF-295 CNS): 903 nM
TGI (SF-295 CNS): > 25 µM
GI50 (NCI-H226 lung): 9.19 µM
TGI (NCI-H226 lung): > 25 µM
GI50 (U251 CNS): 1260 nM
TGI (U251 CNS): > 25 µM
GI50 (SK-MEL-5 melanoma): 873 nM
TGI (SK-MEL-5 melanoma): > 25 µM
GI50 (HCT-15 colon): 729 nM
TGI (HCT-15 colon): > 25 µM
GI50 (SR leukemia): 248 nM
TGI (SR leukemia): > 25 µM
GI50 (SW-620 colon): 880 nM
TGI (SW-620 colon): > 25 µM
GI50 (SNB-19 CNS): 11.5 µM
TGI (SNB-19 CNS): > 25 µM
GI50 (A549 NSCLC): 1970 nM
TGI (A549 NSCLC): > 25 µM
GI50 (KM12 colon): 948 nM
TGI (KM12 colon): > 25 µM
GI50 (TK-10 renal): 8.75 µM
TGI (TK-10 renal): > 25 µM
GI50 (NCI/ADR-RES ovarian): 1550 nM
TGI (NCI/ADR-RES ovarian): > 25 µM
GI50 (HOP-62 NSCLC): 1920 nM
TGI (HOP-62 NSCLC): > 25 µM
GI50 (ACHN renal): 2250 nM
TGI (ACHN renal): > 25 µM
GI50 (CAKI-1 renal): 1200 nM
TGI (CAKI-1 renal): > 25 µM
GI50 (UACC-257 melanoma): 4.17 µM
TGI (UACC-257 melanoma): > 25 µM
GI50 (HOP-92 NSCLC): 1450 nM
TGI (HOP-92 NSCLC): > 7.23 µM
GI50 (CCRF-CEM leukemia): 952 nM
TGI (CCRF-CEM leukemia): > 25 µM
GI50 (HT29 colon): 775 nM
TGI (HT29 colon): > 25 µM
GI50 (SK-MEL-2 melanoma): 894 nM
TGI (SK-MEL-2 melanoma): > 14 µM
GI50 (COLO 205 colon): 1100 nM
TGI (COLO 205 colon): > 25 µM
GI50 (HS 578T breast): 700 nM
TGI (HS 578T breast): > 19.9 µM
GI50 (PC-3 prostate): 1120 nM
TGI (PC-3 prostate): > 25 µM
GI50 (RPMI-8226 leukemia): > 8.42 µM
TGI (RPMI-8226 leukemia): > 25 µM
GI50 (BT-549 breast): 2330 nM
TGI (BT-549 breast): > 25 µM
GI50 (786-0 renal): 1520 nM
TGI (786-0 renal): > 25 µM
